In ChEMBL document CHEMBL1141210, “Structure-based discovery of a new class of Hsp90 inhibitors” (Bioorg Med Chem Lett, 2005) one finds GI50 and IC50 data, which are given here for eleven compounds.

In one experiment the test system is BT-474. Kind of experiment: Inhibition of cell proliferation in BT474 human breast cancer cell line after 48 hr exposure. It is filed as functional. The note with it: BT-474, 48 h.
For a further experiment, the system named is HCT-116. Description: Inhibition of cell proliferation in HCT116 human colon cancer cell line. It is filed as functional.
The target of the next experiment is Heat shock protein HSP90 (Homo sapiens, UniProt P07900+P08238).

Description for Heat shock protein HSP90: Binding affinity to Hsp90 by fluorescent polarization assay

Regarding `O=S(=O)(Nc1ccc(O)c(-c2c(O)ccc3ccccc23)c1)c1cc(Cl)ccc1Cl`, the 50% growth inhibitory concentration (GI50) with BT-474 is 34.9 µM; with HCT-116, 29 µM.
`C[C@@H]1C[C@H]2O[C@@H]2/C=C\C=C\C(=O)Cc2c(Cl)c(O)cc(O)c2C(=O)O1` [RADICICOL]: in the experiment on HCT-116, the GI50 was 0.13 µM.
`C=CCNC1=C2C[C@@H](C)C[C@H](OC)[C@H](O)[C@@H](C)/C=C(\C)[C@H](OC(N)=O)[C@@H](OC)/C=C\C=C(/C)C(=O)NC(=CC1=O)C2=O` [TANESPIMYCIN] showed a GI50 with HCT-116 of 0.16 µM.
The compound `CCc1ccc(S(=O)(=O)Nc2ccc(O)c(-c3c(O)ccc4ccccc34)c2)cc1` registered an IC50 at Heat shock protein HSP90 of 6.6 µM.
Take `O=S(=O)(Nc1ccc(O)c(-c2c(O)ccc3ccccc23)c1)c1ccc(Cl)cc1`: the IC50 on Heat shock protein HSP90 is 2.2 µM. In the experiment on HCT-116, the GI50 amounted to 27.8 µM.
For `O=S(=O)(Nc1ccc(O)c(-c2c(O)ccc3ccccc23)c1)c1ccc(Br)cc1`, at Heat shock protein HSP90, the IC50 came out at 6.1 µM.
The same measure, in the same setting: for `O=S(=O)(Nc1ccc(O)c(-c2c(O)ccc3ccccc23)c1)c1ccc(F)cc1` the value was 8.8 µM; for `CC(C)(C)c1ccc(S(=O)(=O)Nc2ccc(O)c(-c3c(O)ccc4ccccc34)c2)cc1`, 26.4 µM.
On to `O=S(=O)(Nc1ccc(O)c(-c2c(O)ccc3ccccc23)c1)c1cccs1`, for which the IC50 against Heat shock protein HSP90 turned out to be 0.6 µM. For the same compound, the GI50 in the experiment on HCT-116 amounted to 59.8 µM.
The compound `O=S(=O)(Nc1ccc(O)c(-c2c(O)ccc3ccccc23)c1)c1ccccc1` registered an IC50 against Heat shock protein HSP90 of 3.3 µM.
The same measure, in the same setting: to `Cc1cc(C)c(S(=O)(=O)Nc2ccc(O)c(-c3c(O)ccc4ccccc34)c2)cc1C` belongs 15.2 µM.
